Measured values from patent US9952206B2, “Immunoassay for detecting kratom, its constituents and their use” (Randox Laboratories Limited, priority 2013, dated 2018).
≈ marks a conversion by molar mass, not a printed value.

System: antibodies of the invention (antisera generated in response to the immunogen of Example 4)
Test: Competitive chemiluminescent biochip immunoassay, standard curve generation using generated antiserum
Details: for IC50 (standard concentration which produces 50% B/B0): biochip-immobilised IgG fraction of antiserum, hapten-HRP conjugate of Example 5; for % CR (percentage cross-reactivity based on 100% specificity to mitragynine): relative to mitragynine = 100%

| Compound | IC50 (standard concentration which produces 50% B/B0) [ng/mL] | B/Bo (calibrator 0.313 ng/ml) [%] | B/Bo (calibrator 0.625 ng/ml) [%] | B/Bo (calibrator 1.250 ng/ml) [%] | B/Bo (calibrator 2.500 ng/ml) [%] | B/Bo (calibrator 5.000 ng/ml) [%] | B/Bo (calibrator 10.000 ng/ml) [%] | B/Bo (calibrator 20.000 ng/ml) [%] | % CR (percentage cross-reactivity based on 100% specificity to mitragynine) [%] |
| --- | --- | --- | --- | --- | --- | --- | --- | --- | --- |
| CC[C@@H]1CN2CCc3c([nH]c4cccc(OC)c34)[C@H]2C[C@@H]1/C(=C\OC)C(=O)OC (stereo in doubt) [Mitragynine, (E)-2-[(2S,3S,12bS)-3-ethyl-8-methoxy-1,2,3,4,6,7,12,12b-octahydroindolo[2,3-a]quinozilizin-2-yl]-3-methoxy propenoic acid methyl ester] | 1.193 (≈ 2.99 nM) | 75 | 63 | 49 | 37 | 25 | 17 | 11 | 100.00 |
| CCC1CN2CCc3c([nH]c4cccc(O)c34)C2CC1C(=COC)C(=O)OC [8-Desmethylmitragynine, (E)-2-[(2S,3S,12bS)-3-ethyl-8-hydroxy-1,2,3,4,6,7,12,12b-octahydroindolo[2,3-a]quinozilizin-2-yl]-3-methoxy propenoic acid methyl ester] | 1.532 (≈ 3.98 nM) | 74 | 63 | 54 | 42 | 29 | 18 | 13 | 77.87 |
